Measurements taken from PubChem BioAssay (NCI).
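In this assay, cells in 96-well plates receive the compound at five concentrations for 48 hours. Endpoints are linearly interpolated between the surrounding concentrations. GI50 marks 50% less growth. TGI is the concentration that stops growth completely.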

Experiments:
Test in all cases: NCI anticancer screen, dose series, 48 h
BT-549 breast = test system: BT-549 breast
IGROV1 ovarian = test system: IGROV1 ovarian
K-562 leukemia = test system: K-562 leukemia
NCI-H23 lung = test system: NCI-H23 lung
NCI-H460 lung = test system: NCI-H460 lung
RPMI-8226 leukemia = test system: RPMI-8226 leukemia
SF-268 CNS = test system: SF-268 CNS
SF-539 CNS = test system: SF-539 CNS
SW-620 colon = test system: SW-620 colon
UO-31 renal = test system: UO-31 renal

With `N#CC1(c2ccc(NC(=O)c3cccnc3NCc3ccncc3)cc2)CCCC1` the GI50 (BT-549 breast) was 10.2 µM, the TGI (BT-549 breast) was 61 µM and the GI50 (IGROV1 ovarian) was 20.5 µM. The TGI (IGROV1 ovarian) was > 89.8 µM, the GI50 (K-562 leukemia) was 5.79 µM and the TGI (K-562 leukemia) was > 51 µM. It also gave a GI50 (NCI-H23 lung) of 12.8 µM, a TGI (NCI-H23 lung) of 41.8 µM and a GI50 (NCI-H460 lung) of 14.1 µM. It also gave a TGI (NCI-H460 lung) of 54.3 µM, a GI50 (RPMI-8226 leukemia) of 6.73 µM and a TGI (RPMI-8226 leukemia) of 31.4 µM. For the same compound, the GI50 (SF-268 CNS) was 27 µM, the TGI (SF-268 CNS) was > 100 µM and the GI50 (SF-539 CNS) was 3.37 µM. It also gave a TGI (SF-539 CNS) of 29.9 µM, a GI50 (SW-620 colon) of 24.2 µM and a TGI (SW-620 colon) of 72.1 µM. The GI50 (UO-31 renal) was 12.6 µM and the TGI (UO-31 renal) was 60.7 µM.
For `CC(Br)C(=O)NC(CO)C(=O)O` (stereo not given), the TGI (BT-549 breast) was > 100 µM, the TGI (IGROV1 ovarian) was > 100 µM and the TGI (K-562 leukemia) was > 100 µM. The TGI (NCI-H23 lung) was > 100 µM, the TGI (NCI-H460 lung) was > 100 µM and the TGI (RPMI-8226 leukemia) was > 100 µM. The TGI (SF-268 CNS) was > 100 µM, the TGI (SF-539 CNS) was > 100 µM and the TGI (SW-620 colon) was > 100 µM. For the same compound, the TGI (UO-31 renal) was > 100 µM.
With `O=C1/C(=C\c2ccccc2)CN(C(=O)CCN2CCCCC2)C/C1=C/c1ccccc1` the TGI (BT-549 breast) was 1.94 µM, the TGI (IGROV1 ovarian) was 4.48 µM and the TGI (K-562 leukemia) was 0.799 µM. The TGI (NCI-H23 lung) was 4.51 µM, the TGI (NCI-H460 lung) was 5.96 µM and the TGI (RPMI-8226 leukemia) was 0.244 µM. For the same compound, the TGI (SF-268 CNS) was 4.51 µM, the TGI (SF-539 CNS) was 5.52 µM and the TGI (SW-620 colon) was 0.364 µM. The TGI (UO-31 renal) was 4.56 µM.
For `CC1=C(C(=O)Nc2ccccc2)C(c2ccc(N(C)C)cc2)C(C(=O)Nc2ccccc2)=C(C)N1`, the TGI (BT-549 breast) was > 88.3 µM, the TGI (IGROV1 ovarian) was > 88.3 µM and the TGI (K-562 leukemia) was > 69.1 µM. For the same compound, the TGI (NCI-H23 lung) was > 100 µM, the TGI (NCI-H460 lung) was > 100 µM and the TGI (RPMI-8226 leukemia) was 72.9 µM. For the same compound, the TGI (SF-268 CNS) was > 71.6 µM, the TGI (SF-539 CNS) was > 100 µM and the TGI (SW-620 colon) was > 83 µM. For the same compound, the TGI (UO-31 renal) was 65.4 µM.
`CC(=O)O[C@H]1C(=O)[C@@]2(C)C([C@H](OC(=O)c3ccccc3)[C@]3(O)C[C@H](OC(=O)[C@H](O)[C@@H](NC(=O)c4ccccc4)c4ccccc4)C(C)=C1C3(C)C)[C@]1(OC(C)=O)CO[C@@H]1C[C@@H]2O` (stereo not given in full) was tested, and the GI50 (BT-549 breast) was 0.0212 µM, the TGI (BT-549 breast) was > 50 µM and the GI50 (IGROV1 ovarian) was 0.41 µM. The TGI (IGROV1 ovarian) was > 50 µM, the GI50 (K-562 leukemia) was 0.00596 µM and the TGI (K-562 leukemia) was > 50 µM. For the same compound, the GI50 (NCI-H23 lung) was 0.0125 µM, the TGI (NCI-H23 lung) was > 50 µM and the GI50 (NCI-H460 lung) was < 0.005 µM. The TGI (NCI-H460 lung) was > 50 µM, the GI50 (RPMI-8226 leukemia) was < 0.005 µM and the TGI (RPMI-8226 leukemia) was > 50 µM. The GI50 (SF-268 CNS) was 0.021 µM, the TGI (SF-268 CNS) was > 50 µM and the GI50 (SF-539 CNS) was 0.00872 µM. For the same compound, the TGI (SF-539 CNS) was > 50 µM, the GI50 (SW-620 colon) was < 0.005 µM and the TGI (SW-620 colon) was > 50 µM. The GI50 (UO-31 renal) was 1.41 µM and the TGI (UO-31 renal) was > 50 µM.
In the case of `CC(C)(CO)CNC(=O)c1ccc2[nH]c(O)c(N=Nc3ccc(S(N)(=O)=O)cc3)c2c1`, the GI50 (BT-549 breast) is reported as > 25 µM, the TGI (BT-549 breast) is reported as > 25 µM and the GI50 (IGROV1 ovarian) is reported as > 25 µM. For the same compound, the TGI (IGROV1 ovarian) was > 25 µM, the GI50 (K-562 leukemia) was > 25 µM and the TGI (K-562 leukemia) was > 25 µM. The GI50 (NCI-H23 lung) was > 25 µM, the TGI (NCI-H23 lung) was > 25 µM and the GI50 (NCI-H460 lung) was > 25 µM. For the same compound, the TGI (NCI-H460 lung) was > 25 µM, the GI50 (RPMI-8226 leukemia) was > 25 µM and the TGI (RPMI-8226 leukemia) was > 25 µM. The GI50 (SF-268 CNS) was > 25 µM, the TGI (SF-268 CNS) was > 25 µM and the GI50 (SF-539 CNS) was > 25 µM. The TGI (SF-539 CNS) was > 25 µM, the GI50 (SW-620 colon) was > 25 µM and the TGI (SW-620 colon) was > 25 µM. For the same compound, the GI50 (UO-31 renal) was > 25 µM and the TGI (UO-31 renal) was > 25 µM.
In the case of `CN[C@@H](C)C(=O)N[C@H]1CN(S(=O)(=O)c2cccc(S(=O)(=O)N3CC[C@H]4CC[C@@H](C(=O)NC(c5ccccc5)c5ccccc5)N4C(=O)[C@@H](NC(=O)[C@H](C)NC)C3)c2)CC[C@H]2CC[C@@H](C(=O)NC(c3ccccc3)c3ccccc3)N2C1=O`, the GI50 (BT-549 breast) is reported as < 0.01 µM, the TGI (BT-549 breast) is reported as < 0.0197 µM and the GI50 (IGROV1 ovarian) is reported as 21 µM. For the same compound, the TGI (IGROV1 ovarian) was 44.5 µM, the GI50 (K-562 leukemia) was 26.5 µM and the TGI (K-562 leukemia) was > 100 µM. The GI50 (NCI-H23 lung) was 1.09 µM, the TGI (NCI-H23 lung) was 17.9 µM and the GI50 (NCI-H460 lung) was 20.2 µM. The TGI (NCI-H460 lung) was 46.3 µM, the GI50 (RPMI-8226 leukemia) was 3.92 µM and the TGI (RPMI-8226 leukemia) was 99.2 µM. The GI50 (SF-268 CNS) was 20.9 µM, the TGI (SF-268 CNS) was 47.8 µM and the GI50 (SF-539 CNS) was < 0.01 µM. The TGI (SF-539 CNS) was 0.509 µM, the GI50 (SW-620 colon) was 31.7 µM and the TGI (SW-620 colon) was > 100 µM. The GI50 (UO-31 renal) was > 73 µM and the TGI (UO-31 renal) was > 100 µM.
`COc1ccc2c(c1)c(-c1nc(-c3c[nH]c4ncccc34)cs1)cn2CCCN1CCOCC1` gave a GI50 (BT-549 breast) of 2 µM, a TGI (BT-549 breast) of 5.87 µM and a GI50 (IGROV1 ovarian) of 2.09 µM. It also gave a TGI (IGROV1 ovarian) of 8.69 µM, a GI50 (K-562 leukemia) of 2.08 µM and a TGI (K-562 leukemia) of 4.95 µM. The GI50 (NCI-H23 lung) was 2.68 µM, the TGI (NCI-H23 lung) was 8.75 µM and the GI50 (NCI-H460 lung) was 2.54 µM. The TGI (NCI-H460 lung) was 6.6 µM, the GI50 (RPMI-8226 leukemia) was 1.92 µM and the TGI (RPMI-8226 leukemia) was 4.86 µM. The GI50 (SF-268 CNS) was 2.69 µM, the TGI (SF-268 CNS) was 10.3 µM and the GI50 (SF-539 CNS) was 1.74 µM. For the same compound, the TGI (SF-539 CNS) was 3.67 µM, the GI50 (SW-620 colon) was 2.26 µM and the TGI (SW-620 colon) was 5.24 µM. For the same compound, the GI50 (UO-31 renal) was 1.37 µM and the TGI (UO-31 renal) was 3.67 µM.
Compound `COc1ccc2c(N)ncc(C#Cc3cc(C(=O)Nc4ccc(CN5CCN(C)CC5)c(C(F)(F)F)c4)cnc3C)c2c1` has a GI50 (BT-549 breast) of 6.02 µM, a TGI (BT-549 breast) of 14.9 µM and a GI50 (IGROV1 ovarian) of 0.437 µM. For the same compound, the TGI (IGROV1 ovarian) was 2.11 µM, the GI50 (K-562 leukemia) was 0.00868 µM and the TGI (K-562 leukemia) was 1.02 µM. For the same compound, the GI50 (NCI-H23 lung) was 1.89 µM, the TGI (NCI-H23 lung) was 8.79 µM and the GI50 (NCI-H460 lung) was 0.476 µM. It also gave a TGI (NCI-H460 lung) of 1.03 µM, a GI50 (RPMI-8226 leukemia) of 0.775 µM and a TGI (RPMI-8226 leukemia) of 2.25 µM. The GI50 (SF-268 CNS) was 1.21 µM, the TGI (SF-268 CNS) was 4.78 µM and the GI50 (SF-539 CNS) was 0.597 µM. It also gave a TGI (SF-539 CNS) of 1.12 µM, a GI50 (SW-620 colon) of 0.578 µM and a TGI (SW-620 colon) of 1.3 µM. The GI50 (UO-31 renal) was 0.632 µM and the TGI (UO-31 renal) was 2.28 µM.
For `CN(C)CCCC1(c2ccc(F)cc2)OCc2cc(-c3cccc4[nH]ccc34)ccc21` (stereo not given), the GI50 (BT-549 breast) was 1.87 µM, the TGI (BT-549 breast) was 3.54 µM and the GI50 (IGROV1 ovarian) was 1.33 µM. It also gave a TGI (IGROV1 ovarian) of 2.73 µM, a GI50 (K-562 leukemia) of 1.4 µM and a TGI (K-562 leukemia) of 3.32 µM. For the same compound, the GI50 (NCI-H23 lung) was 1.83 µM, the TGI (NCI-H23 lung) was 3.62 µM and the GI50 (NCI-H460 lung) was 1.89 µM. The TGI (NCI-H460 lung) was 3.63 µM, the GI50 (RPMI-8226 leukemia) was 1.77 µM and the TGI (RPMI-8226 leukemia) was 4.12 µM. The GI50 (SF-268 CNS) was 1.58 µM, the TGI (SF-268 CNS) was 3.03 µM and the GI50 (SF-539 CNS) was 1.67 µM. It also gave a TGI (SF-539 CNS) of 3.12 µM, a GI50 (SW-620 colon) of 1.77 µM and a TGI (SW-620 colon) of 3.54 µM. The GI50 (UO-31 renal) was 1.35 µM and the TGI (UO-31 renal) was 2.63 µM.
